{"source": "the supplement of paper PMC10307832", "assay_in_all_cases": "relative viability (nuclei count vs DMSO), 5 days (fraction); higher = more cells survive", "key": {"[1]": {"tested_on": "BEN", "method_in_brief": "(§1)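 Values are medians from duplicate plates. Each reflects relative viability, defined as the nuclei count of treated wells over that of vehicle wells. Lung cancer cell lines in 1536-well plates were pin-tool dosed one day after seeding with one drug alone or with a fixed anchor-drug dose plus five library-drug doses (not always all listed) in √10 steps, then fixed, stained and imaged at 4× after 5 days.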"}, "[2]": {"tested_on": "HCC-78", "method_in_brief": "as §1"}, "[3]": {"tested_on": "NCI-H2228", "method_in_brief": "as §1"}, "[4]": {"tested_on": "NCI-H520", "method_in_brief": "as §1"}, "[5]": {"tested_on": "NCI-H2009", "method_in_brief": "as §1"}, "[6]": {"tested_on": "UMC-11", "method_in_brief": "as §1"}, "[7]": {"tested_on": "LK-2", "method_in_brief": "as §1"}, "[8]": {"tested_on": "HCC-44", "method_in_brief": "as §1"}, "[9]": {"tested_on": "LOU-NH91", "method_in_brief": "as §1"}, "[10]": {"tested_on": "SW 1573", "method_in_brief": "as §1"}, "[11]": {"tested_on": "NCI-H1734", "method_in_brief": "as §1"}, "[12]": {"tested_on": "NCI-H2405", "method_in_brief": "as §1"}, "[13]": {"tested_on": "NCI-H1355", "method_in_brief": "as §1"}, "[14]": {"tested_on": "NCI-H838", "method_in_brief": "as §1"}, "[15]": {"tested_on": "NCI-H358", "method_in_brief": "as §1"}, "[16]": {"tested_on": "NCI-H1666", "method_in_brief": "as §1"}, "[17]": {"tested_on": "HCC-366", "method_in_brief": "as §1"}, "[18]": {"tested_on": "201T", "method_in_brief": "as §1"}, "[19]": {"tested_on": "NCI-H1650", "method_in_brief": "as §1"}, "[20]": {"tested_on": "NCI-H1755", "method_in_brief": "as §1"}, "[21]": {"tested_on": "NCI-H2347", "method_in_brief": "as §1"}}}
{"smiles": "O=C(O)CCCCC(CCSCc1ccccc1)SCc1ccccc1", "note": "(centres undefined) [CPI-613] + Nc1nc2[nH]cc(CCc3ccc(C(=O)N[C@@H](CCC(=O)O)C(=O)O)cc3)c2c(=O)[nH]1 [Pemetrexed] (partner 0.2 µM)", "values": [{"measurement": "relative viability", "setting": "[1]; first compound 5 µM", "value": 0.809}, {"measurement": "relative viability", "setting": "[1]; first compound 15.81 µM", "value": 0.571}, {"measurement": "relative viability", "setting": "[1]; first compound 50 µM", "value": 0.763}, {"measurement": "relative viability", "setting": "[1]; first compound 158.11 µM", "value": 0.76}, {"measurement": "relative viability", "setting": "[1]; first compound 500 µM", "value": 0.703}, {"measurement": "relative viability", "setting": "[2]; first compound 15.81 µM", "value": 0.898}, {"measurement": "relative viability", "setting": "[2]; first compound 50 µM", "value": 0.906}, {"measurement": "relative viability", "setting": "[2]; first compound 158.11 µM", "value": 0.874}, {"measurement": "relative viability", "setting": "[2]; first compound 500 µM", "value": 0.913}, {"measurement": "relative viability", "setting": "[3]; first compound 5 µM", "value": 0.362}, {"measurement": "relative viability", "setting": "[3]; first compound 15.81 µM", "value": 0.33}, {"measurement": "relative viability", "setting": "[3]; first compound 50 µM", "value": 0.324}, {"measurement": "relative viability", "setting": "[3]; first compound 158.11 µM", "value": 0.272}, {"measurement": "relative viability", "setting": "[3]; first compound 500 µM", "value": 0.059}, {"measurement": "relative viability", "setting": "[4]; first compound 5 µM", "value": 0.708}, {"measurement": "relative viability", "setting": "[4]; first compound 15.81 µM", "value": 0.627}, {"measurement": "relative viability", "setting": "[4]; first compound 50 µM", "value": 0.527}, {"measurement": "relative viability", "setting": "[4]; first compound 158.11 µM", "value": 0.232}, {"measurement": "relative viability", "setting": "[4]; first compound 500 µM", "value": 0.155}, {"measurement": "relative viability", "setting": "[5]; first compound 5 µM", "value": 0.985}, {"measurement": "relative viability", "setting": "[5]; first compound 15.81 µM", "value": 1}, {"measurement": "relative viability", "setting": "[5]; first compound 50 µM", "value": 0.947}, {"measurement": "relative viability", "setting": "[5]; first compound 158.11 µM", "value": 0.322}, {"measurement": "relative viability", "setting": "[5]; first compound 500 µM", "value": 0.0262}, {"measurement": "relative viability", "setting": "[6]; first compound 5 µM", "value": 0.703}, {"measurement": "relative viability", "setting": "[6]; first compound 15.81 µM", "value": 0.8}, {"measurement": "relative viability", "setting": "[6]; first compound 50 µM", "value": 0.758}, {"measurement": "relative viability", "setting": "[6]; first compound 158.11 µM", "value": 0.36}, {"measurement": "relative viability", "setting": "[6]; first compound 500 µM", "value": 0.115}, {"measurement": "relative viability", "setting": "[7]; first compound 5 µM", "value": 0.337}, {"measurement": "relative viability", "setting": "[7]; first compound 15.81 µM", "value": 0.225}, {"measurement": "relative viability", "setting": "[7]; first compound 50 µM", "value": 0.324}, {"measurement": "relative viability", "setting": "[7]; first compound 158.11 µM", "value": 0.265}, {"measurement": "relative viability", "setting": "[7]; first compound 500 µM", "value": 0.241}, {"measurement": "relative viability", "setting": "[8]; first compound 5 µM", "value": 0.635}, {"measurement": "relative viability", "setting": "[8]; first compound 15.81 µM", "value": 0.61}, {"measurement": "relative viability", "setting": "[8]; first compound 50 µM", "value": 0.592}, {"measurement": "relative viability", "setting": "[8]; first compound 158.11 µM", "value": 0.622}, {"measurement": "relative viability", "setting": "[8]; first compound 500 µM", "value": 0.53}, {"measurement": "relative viability", "setting": "[9]; first compound 5 µM", "value": 0.389}, {"measurement": "relative viability", "setting": "[9]; first compound 15.81 µM", "value": 0.332}, {"measurement": "relative viability", "setting": "[9]; first compound 50 µM", "value": 0.367}, {"measurement": "relative viability", "setting": "[9]; first compound 158.11 µM", "value": 0.399}, {"measurement": "relative viability", "setting": "[9]; first compound 500 µM", "value": 0.233}, {"measurement": "relative viability", "setting": "[10]; first compound 5 µM", "value": 0.771}, {"measurement": "relative viability", "setting": "[10]; first compound 15.81 µM", "value": 0.777}, {"measurement": "relative viability", "setting": "[10]; first compound 50 µM", "value": 0.781}, {"measurement": "relative viability", "setting": "[10]; first compound 158.11 µM", "value": 0.317}, {"measurement": "relative viability", "setting": "[10]; first compound 500 µM", "value": 0.0621}, {"measurement": "relative viability", "setting": "[11]; first compound 5 µM", "value": 0.387}, {"measurement": "relative viability", "setting": "[11]; first compound 15.81 µM", "value": 0.418}, {"measurement": "relative viability", "setting": "[11]; first compound 50 µM", "value": 0.411}, {"measurement": "relative viability", "setting": "[11]; first compound 158.11 µM", "value": 0.38}, {"measurement": "relative viability", "setting": "[11]; first compound 500 µM", "value": 0.131}, {"measurement": "relative viability", "setting": "[12]; first compound 5 µM", "value": 1.04}, {"measurement": "relative viability", "setting": "[12]; first compound 15.81 µM", "value": 0.922}, {"measurement": "relative viability", "setting": "[12]; first compound 50 µM", "value": 0.968}, {"measurement": "relative viability", "setting": "[12]; first compound 158.11 µM", "value": 0.63}, {"measurement": "relative viability", "setting": "[12]; first compound 500 µM", "value": 0.336}, {"measurement": "relative viability", "setting": "[13]; first compound 5 µM", "value": 1.02}, {"measurement": "relative viability", "setting": "[13]; first compound 15.81 µM", "value": 0.983}, {"measurement": "relative viability", "setting": "[13]; first compound 50 µM", "value": 1.06}, {"measurement": "relative viability", "setting": "[13]; first compound 158.11 µM", "value": 0.754}, {"measurement": "relative viability", "setting": "[13]; first compound 500 µM", "value": 0.457}, {"measurement": "relative viability", "setting": "[14]; first compound 5 µM", "value": 0.232}, {"measurement": "relative viability", "setting": "[14]; first compound 15.81 µM", "value": 0.229}, {"measurement": "relative viability", "setting": "[14]; first compound 50 µM", "value": 0.215}, {"measurement": "relative viability", "setting": "[14]; first compound 158.11 µM", "value": 0.149}, {"measurement": "relative viability", "setting": "[14]; first compound 500 µM", "value": 0.0989}, {"measurement": "relative viability", "setting": "[15]; first compound 5 µM", "value": 0.152}, {"measurement": "relative viability", "setting": "[15]; first compound 15.81 µM", "value": 0.172}, {"measurement": "relative viability", "setting": "[15]; first compound 50 µM", "value": 0.182}, {"measurement": "relative viability", "setting": "[15]; first compound 158.11 µM", "value": 0.156}, {"measurement": "relative viability", "setting": "[15]; first compound 500 µM", "value": 0.0253}, {"measurement": "relative viability", "setting": "[16]; first compound 5 µM", "value": 0.892}, {"measurement": "relative viability", "setting": "[16]; first compound 15.81 µM", "value": 0.857}, {"measurement": "relative viability", "setting": "[16]; first compound 50 µM", "value": 0.835}, {"measurement": "relative viability", "setting": "[16]; first compound 158.11 µM", "value": 0.489}, {"measurement": "relative viability", "setting": "[16]; first compound 500 µM", "value": 0.471}, {"measurement": "relative viability", "setting": "[17]; first compound 5 µM", "value": 0.135}, {"measurement": "relative viability", "setting": "[17]; first compound 15.81 µM", "value": 0.152}, {"measurement": "relative viability", "setting": "[17]; first compound 50 µM", "value": 0.162}, {"measurement": "relative viability", "setting": "[17]; first compound 158.11 µM", "value": 0.123}, {"measurement": "relative viability", "setting": "[17]; first compound 500 µM", "value": 0.0078}, {"measurement": "relative viability", "setting": "[18]; first compound 5 µM", "value": 0.268}, {"measurement": "relative viability", "setting": "[18]; first compound 15.81 µM", "value": 0.341}, {"measurement": "relative viability", "setting": "[18]; first compound 50 µM", "value": 0.327}, {"measurement": "relative viability", "setting": "[18]; first compound 158.11 µM", "value": 0.24}, {"measurement": "relative viability", "setting": "[18]; first compound 500 µM", "value": 0.179}, {"measurement": "relative viability", "setting": "[19]; first compound 5 µM", "value": 0.346}, {"measurement": "relative viability", "setting": "[19]; first compound 15.81 µM", "value": 0.376}, {"measurement": "relative viability", "setting": "[19]; first compound 50 µM", "value": 0.393}, {"measurement": "relative viability", "setting": "[19]; first compound 158.11 µM", "value": 0.151}, {"measurement": "relative viability", "setting": "[19]; first compound 500 µM", "value": 0.0174}, {"measurement": "relative viability", "setting": "[20]; first compound 5 µM", "value": 0.436}, {"measurement": "relative viability", "setting": "[20]; first compound 15.81 µM", "value": 0.57}, {"measurement": "relative viability", "setting": "[20]; first compound 50 µM", "value": 0.371}, {"measurement": "relative viability", "setting": "[20]; first compound 158.11 µM", "value": 0.396}, {"measurement": "relative viability", "setting": "[20]; first compound 500 µM", "value": 0.372}, {"measurement": "relative viability", "setting": "[21]; first compound 5 µM", "value": 0.413}, {"measurement": "relative viability", "setting": "[21]; first compound 15.81 µM", "value": 0.434}, {"measurement": "relative viability", "setting": "[21]; first compound 50 µM", "value": 0.405}, {"measurement": "relative viability", "setting": "[21]; first compound 158.11 µM", "value": 0.383}, {"measurement": "relative viability", "setting": "[21]; first compound 500 µM", "value": 0.419}]}
